In patent US10865191B2, “Heterocyclic compounds useful as modulators of TNF alpha” (BRISTOL-MYERS SQUIBB COMPANY, priority 2015, dated 2020):
Like-named read-outs stand apart in the source and are kept apart here.

Biological target: TNFα (Homo sapiens, UniProt P01375)
Test: TNF induced HEK-Blue assay (NF-kB-driven secreted alkaline phosphatase reporter)
Assay type: cell-based
Conditions: TNFα 0.5 ng/mL, HEK-Blue-CD40L cells, 18 h
How it was run: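 HEK-Blue-CD40L cells (NF-kB-driven SEAP reporter), 20,000/well, added after 30 min pre-incubation of compound (0.004–25 μM final) with TNFα 0.5 ng/mL final at 37 °C; 18 h incubation. SEAP read with QUANTI-Blue at 620 nm; IC50 from 4-parameter logistic fit, normalized to unstimulated and stimulated DMSO controls.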

[1] = read-out: TNF induced HEK-Blue assay IC50 value
[2] = TNF induced HEK-Blue assay IC50 value

Chain of TNFα (P01375 77-233 limits assumed): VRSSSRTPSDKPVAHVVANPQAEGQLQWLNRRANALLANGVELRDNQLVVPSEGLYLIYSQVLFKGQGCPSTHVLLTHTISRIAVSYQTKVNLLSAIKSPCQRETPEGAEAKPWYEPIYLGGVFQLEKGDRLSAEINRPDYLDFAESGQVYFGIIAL

Row | SMILES | IC50 [1] | IC50 [2]
1 | CC(Nc1c(Cl)cnc2ccc(-c3ccc(C(C)(C)O)cc3)cc12)c1cccs1 (racemic) [Example 199, 2-(4-(3-chloro-4-((1-(thiophen-2-yl)ethyl)amino)quinolin-6-yl)phenyl)propan-2-ol] | < 1000 nM | 
2 | CCC(Nc1c(Cl)cnc2ccc(-c3cnc(C(C)(C)O)nc3)cc12)c1ccccn1 (racemic) [Example 52, 2-(5-(3-chloro-4-((1-(pyridin-2-yl)propyl)amino)quinolin-6-yl)pyrimidin-2-yl)propan-2-ol] | < 1000 nM | 
3 | Fc1ccc(-c2cncnc2)cc1[C@H](Nc1c(Cl)cnc2ccccc12)C(F)F [Example 559, (S)-3-chloro-N-(2,2-difluoro-1-(2-fluoro-5-(pyrimidin-5-yl)phenyl)ethyl)quinolin-4-amine] | < 1000 nM | 
4 | Cc1nc2c(F)cc(-c3cnc(C(C)(C)O)nc3)cc2c(N[C@@H](c2ccccc2F)C(F)F)c1Cl [Example 299, (S)-2-(5-(3-chloro-4-((2,2-difluoro-1-(2-fluorophenyl)ethyl)amino)-8-fluoro-2-methylquinolin-6-yl)pyrimidin-2-yl)propan-2-ol] | < 1000 nM | 
5 | C[C@@H](Nc1c(Cl)cnc2ccccc12)c1ccccc1C(F)(F)F [Example 463, 3-chloro-N-(1-(2-(trifluoromethyl)phenyl)ethyl)quinolin-4-amine] | 10000 to 25000 nM | 
6 | Cc1ncccc1-c1ccc(F)c([C@@H](C)Nc2c(Cl)cnc3ccccc23)c1 [Example 475, (R)-3-chloro-N-(1-(2-fluoro-5-(2-methylpyridin-3-yl)phenyl)ethyl)quinolin-4-amine] | 1000 to 10000 nM | 
7 | C[C@H](Nc1c(Cl)cnc2cc(F)c(-c3cnc(C(C)(C)O)nc3)nc12)c1ccccc1 [Example 208, (S)-2-(5-(7-chloro-3-fluoro-8-((1-phenylethyl)amino)-1,5-naphthyridin-2-yl)pyrimidin-2-yl)propan-2-ol] | < 1000 nM | 
8 | Cc1ccc(C)c(Nc2c(Cl)c(C(=O)Nc3cccnc3)nc3ccc(-c4ccc(C#N)nc4)cc23)c1 [Example 32, 3-chloro-6-(6-cyanopyridin-3-yl)-4-((2,5-dimethylphenyl)amino)-N-(pyridin-3-yl)quinoline-2-carboxamide] | < 1000 nM | 
9 | Cc1nc2ccc(-c3cnc(C(C)(C)O)nc3)cc2c(N[C@H](C)c2cc(N3CCCC3=O)ccc2F)c1Cl [Example 361, (R)-1-(3-(1-((3-chloro-6-(2-(2-hydroxypropan-2-yl)pyrimidin-5-yl)-2-methylquinolin-4-yl)amino)ethyl)-4-fluorophenyl)pyrrolidin-2-one] | < 1000 nM | 
10 | C=Cc1ccc(F)c([C@H](Nc2c(Cl)c(C)nc3ccc(-c4cnc(C(C)(C)O)nc4)cc23)C(F)F)c1 [Example 352, (S)-2-(5-(3-chloro-4-((2,2-difluoro-1-(2-fluoro-5-vinylphenyl)ethyl)amino)-2-methylquinolin-6-yl)pyrimidin-2-yl)propan-2-ol] | < 1000 nM | 
11 | CCN(Cc1c(Cl)cnc2ccc(-c3cnc(C(C)(C)O)nc3)cc12)c1ccccc1 [Example 66, 2-(5-(3-chloro-4-((ethyl(phenyl)amino)methyl)quinolin-6-yl)pyrimidin-2-yl)propan-2-ol] | 1000 to 10000 nM | 

Second part, the compound after the results:

Row | IC50 [1] | IC50 [2] | SMILES
12 | < 1000 nM |  | Cc1nc2ccc(-c3cnc(N4CCOCC4)nc3)cc2c(N[C@H](C)c2cc(C(N)=O)ccc2F)c1Cl [Example 313, (R)-3-(1-((3-chloro-2-methyl-6-(2-morpholinopyrimidin-5-yl)quinolin-4-yl)amino)ethyl)-4-fluorobenzamide]
13 | < 1000 nM |  | CC(Nc1c(Cl)cnc2cc(F)c(-c3cnc(N4CCN(C(=O)[C@H](N)CC(=O)O)CC4)nc3)cc12)c1ccccc1F (single isomer, unassigned) [Example 607]
14 | < 1000 nM |  | COc1ccc(-c2ccc(F)c([C@@H](C)Nc3c(Cl)cnc4ccccc34)c2)cn1 [Example 460, (R)-3-chloro-N-(1-(2-fluoro-5-(6-methoxypyridin-3-yl)phenyl)ethyl)quinolin-4-amine]
15 |  | 1000 to 10000 nM | CC(Nc1c(Cl)cnc2ccc(-c3cnc(C(C)(C)O)nc3)cc12)c1cccc(F)c1 (racemic) [Example 155, 2-(5-(3-chloro-4-((1-(3-fluorophenyl)ethyl)amino)quinolin-6-yl)pyrimidin-2-yl)propan-2-ol]
16 | < 1000 nM |  | C[C@@H](Nc1c(Cl)cnc2ccc(-c3cnc(N4CCN(CC#N)CC4)nc3)cc12)c1ccccc1F [Example 233, (R)-2-(4-(5-(3-chloro-4-((1-(2-fluorophenyl)ethyl)amino)quinolin-6-yl)pyrimidin-2-yl)piperazin-1-yl)acetonitrile]
17 |  | < 1000 nM | C[C@@H](Nc1c(Cl)cnc2ccc(-c3cnc(N4CCS(=O)(=O)CC4)nc3)cc12)c1ccccc1F [Example 225, (R)-4-(5-(3-chloro-4-((1-(2-fluorophenyl)ethyl)amino)quinolin-6-yl)pyrimidin-2-yl)thiomorpholine 1,1-dioxide]
18 | < 1000 nM |  | CC(C)(O)c1ncc(-c2ccc3ncc(Cl)c(NC(CF)c4ccccc4F)c3c2)cn1 (racemic) [Example 10, 2-(5-(3-chloro-4-((2-fluoro-1-(2-fluorophenyl)ethyl)amino)quinolin-6-yl)pyrimidin-2-yl)propan-2-ol]
19 | 10000 to 25000 nM |  | CC(Nc1c(Cl)cnc2ccc(-c3cnc(C(C)(C)O)nc3)cc12)C1(c2ccc(Cl)cc2)CCCC1 (racemic) [Example 142, 2-(5-(3-chloro-4-((1-(1-(4-chlorophenyl)cyclopentyl)ethyl)amino)quinolin-6-yl)pyrimidin-2-yl)propan-2-ol]
20 | < 1000 nM |  | C[C@@H](Nc1c(Cl)cnc2ccccc12)c1cc(-c2cncc(N)c2)ccc1F [Example 511, (R)—N-(1-(5-(5-aminopyridin-3-yl)-2-fluorophenyl)ethyl)-3-chloroquinolin-4-amine]
21 | 10000 to 25000 nM |  | C[C@@H](Nc1c(Cl)cnc2ccc(-c3ccc(CN4CCC4)cc3)cc12)c1ccccc1F [Example 30, (R)-6-(4-(azetidin-1-ylmethyl)phenyl)-3-chloro-N-(1-(2-fluorophenyl)ethyl)quinolin-4-amine]
22 |  | < 1000 nM | C[C@@H](Nc1c(Cl)cnc2ccc(-c3cnc(C(C)(C)O)nc3)cc12)c1cc(N)ccc1F [Example 374, (R)-2-(5-(4-((1-(5-amino-2-fluorophenyl)ethyl)amino)-3-chloroquinolin-6-yl)pyrimidin-2-yl)propan-2-ol]
23 | < 1000 nM |  | C[C@@H](Nc1c(Cl)cnc2ccc(-c3cnc(N4CCOCC4)nc3)cc12)c1ccccc1F [Example 219, (R)-3-chloro-N-(1-(2-fluorophenyl)ethyl)-6-(2-morpholinopyrimidin-5-yl)quinolin-4-amine]
24 | < 1000 nM |  | CC(Nc1c(Cl)cnc2cc(F)c(-c3cnc(C(O)CN4CCOCC4)cn3)cc12)c1ccccc1F (centres unmarked) [Example 275, 1-(5-(3-chloro-7-fluoro-4-((1-(2-fluorophenyl)ethyl)amino)quinolin-6-yl)pyrazin-2-yl)-2-morpholinoethan-1-ol]
25 | < 1000 nM |  | CC(Nc1c(Cl)cnc2cc(F)c(-c3cnc(C(O)CO)nc3)cc12)c1ccccc1F (single isomer, unassigned) [Example 596, 1-(5-(3-chloro-7-fluoro-4-((1-(2-fluorophenyl)ethyl)amino)quinolin-6-yl)pyrimidin-2-yl)ethane-1,2-diol]
26 | < 1000 nM |  | C[C@@H](Nc1c(Cl)cnc2ccc(-c3cnc(C(C)(C)O)nc3)cc12)c1cc(-c2cnccn2)ccc1F [Example 341, (R)-2-(5-(3-chloro-4-((1-(2-fluoro-5-(pyrazin-2-yl)phenyl)ethyl)amino)quinolin-6-yl)pyrimidin-2-yl)propan-2-ol]
